This note sets out measurements from patent US20130324522A1, “INSECT ODORANT RECEPTOR ANTAGONISTS” (THE ROCKEFELLER UNIVERSITY, priority 2010, published 2013).

pIC50: −log10 of the molar value. Like-named read-outs stand apart in the source and are kept apart here.

Common to all, as to assay type: cell-based
Assay [1] concerns the target OR8/OR7 (Anopheles gambiae, UniProt Q7PUT5+Q7QCC7). In words: Ca2+-imaging of stable HEK293T cell line OR8/OR7. The conditions noted are these: for inhibition at 4 µM: HEK-293T, compound applied at 4 μM, read-out: Percent Inhibition OR8 OR7. The method, then: (§1) Full-length cDNAs for mosquito (Anopheles gambiae) odorant receptor (OR1, OR2, OR7, OR8, OR28), and fly (Drosophila melanogaster) odorant receptor (Or47a, Or83b), mouse TRP channel (TRPM8), and mouse serotonin receptor (5HT3) were obtained and subcloned into mammalian expression vectors. The following mammalian expression vectors were used:
(§2) Stable cell lines OR1/OR7, OR2/OR7, OR8/OR7, OR10/OR7, OR28/OR7 and TRPM8 were generated from HEK293T cells. HEK293T-based cell lines were cultured in DMEM supplemented with these additional antibiotics: 6 μg/mL blasticidin and 1 μg/mL puromycin, with the exception of the TRPM8 cell lines, which was cultured in DMEM supplemented with 1 μg/mL puromycin.
(§3) Cells were trypsinized and split into 35 mm dishes one day before transfection. Confluent cells (60-70%) in 35 mm dishes were transfected with 1 μg of insect OR(X) plasmids in pME18s-bla and 1 μg of OR7-pME18s-puro using lipofectamine 2000. For Anopheles odorant receptors, two plasmids were co-transfected into HEK cells: the ligand-specific receptor (OR1, OR2, OR8, OR28) and the corresponding olfactory co-receptor: OR7. Cell lines containing TRPM8 were transfected with single plasmid.
(§4) Stable cell lines were cultured in 10 cm dishes, and confluent cells (70-80%) were trypsinized. 10,000 cells/20 μL were transferred into each well of 384-well plates coated with poly-D-lysine, and cultured for 2 days. For Flip-In T-Rex cells (cell lines expressing Or47a/Or83b and 5HT3), 5 μL of tetracycline (5 μg/mL) were added 1 day before the assay. 20 μL of Ca-4 dye was loaded into each well for 1.5 hr at room temperature in the dark, and the dye-loaded plates were subjected to Ca^2+-imaging using a Hamamatsu FDSS6000 real time fluorescence plate reader. Odorant solutions (9× final concentration) were prepared by dissolving 1M stock solutions into Hank's Buffered Salt Solution (HBSS), and 30 μL of odor solution was transferred to each well in 384-well plates.
(§5) Compounds ([…] in DMSO) were stored in 384-well plates, and last two columns (32 wells total) contained only DMSO. 200 nL of small compounds were transferred into the odorant plates before the assay using the Perkin-Elmer Janus workstation. The odorant plates were spun down to remove air bubbles, and placed on the FDSS6000 plate loader, and 5 μL of odorant solution was applied to the cell plate on the FDSS6000. Ca^2+ increase was monitored with fluorescence at 525 nm by excitation at 485 nm.

Assay [2] deals with OR28/OR7 (Anopheles gambiae, UniProt A0A1S4GFY3+Q7QCC7). In words: Ca2+-imaging of stable HEK293T cell line OR28/OR7. The conditions noted are these: for inhibition at 4 µM: HEK-293T, compound applied at 4 μM, read-out: Percent Inhibition OR28 OR7. The method, then: as §1, §2, §3, §4, §5
Chain of OR28/OR7 (A0A1S4GFY3 entry or part of it): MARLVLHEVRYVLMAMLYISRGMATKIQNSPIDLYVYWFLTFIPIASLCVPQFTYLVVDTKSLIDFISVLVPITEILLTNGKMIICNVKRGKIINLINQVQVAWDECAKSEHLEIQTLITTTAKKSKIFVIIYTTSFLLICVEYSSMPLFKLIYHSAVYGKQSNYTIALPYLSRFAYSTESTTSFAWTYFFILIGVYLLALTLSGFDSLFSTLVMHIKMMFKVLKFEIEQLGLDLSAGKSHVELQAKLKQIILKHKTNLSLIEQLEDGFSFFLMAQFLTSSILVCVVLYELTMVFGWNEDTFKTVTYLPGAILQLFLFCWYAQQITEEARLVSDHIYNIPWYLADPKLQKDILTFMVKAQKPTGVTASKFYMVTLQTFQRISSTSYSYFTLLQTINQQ
Chain of OR28/OR7 (Q7QCC7 whole entry): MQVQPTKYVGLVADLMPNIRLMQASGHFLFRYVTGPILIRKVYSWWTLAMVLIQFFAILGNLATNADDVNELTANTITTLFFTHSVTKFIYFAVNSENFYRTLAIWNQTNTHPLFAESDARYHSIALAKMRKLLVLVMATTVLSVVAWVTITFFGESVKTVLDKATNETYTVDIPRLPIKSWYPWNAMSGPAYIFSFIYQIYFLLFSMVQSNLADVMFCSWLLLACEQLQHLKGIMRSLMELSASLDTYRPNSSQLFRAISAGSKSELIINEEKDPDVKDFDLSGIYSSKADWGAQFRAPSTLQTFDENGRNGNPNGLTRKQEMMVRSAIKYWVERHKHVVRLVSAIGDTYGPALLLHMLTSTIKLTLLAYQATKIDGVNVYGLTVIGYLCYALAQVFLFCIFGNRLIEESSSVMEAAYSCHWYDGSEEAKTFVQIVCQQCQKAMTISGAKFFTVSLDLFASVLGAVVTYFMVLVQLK
In assay [3] the target is T1, Or47a/Or83b (Drosophila melanogaster, UniProt P81921+Q9VNB5).
T1 construct: Full-length cDNAs for mosquito (Anopheles gambiae) odorant receptor (OR1, OR2, OR7, OR8, OR28), and fly (Drosophila melanogaster) odorant receptor (Or47a, Or83b); expressed in transfected cells
T1 sequence (P81921 1-385): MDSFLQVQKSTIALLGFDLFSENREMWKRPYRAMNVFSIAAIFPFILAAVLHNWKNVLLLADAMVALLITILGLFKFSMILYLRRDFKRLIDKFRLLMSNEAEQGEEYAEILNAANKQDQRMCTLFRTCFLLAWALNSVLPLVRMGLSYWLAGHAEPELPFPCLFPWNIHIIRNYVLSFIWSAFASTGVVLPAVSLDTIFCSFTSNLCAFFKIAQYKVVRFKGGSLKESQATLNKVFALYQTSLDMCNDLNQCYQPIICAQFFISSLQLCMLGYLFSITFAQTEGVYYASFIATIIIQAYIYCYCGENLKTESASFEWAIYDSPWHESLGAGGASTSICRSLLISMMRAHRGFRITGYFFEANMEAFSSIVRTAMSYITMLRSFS
T1 sequence (Q9VNB5 1-486): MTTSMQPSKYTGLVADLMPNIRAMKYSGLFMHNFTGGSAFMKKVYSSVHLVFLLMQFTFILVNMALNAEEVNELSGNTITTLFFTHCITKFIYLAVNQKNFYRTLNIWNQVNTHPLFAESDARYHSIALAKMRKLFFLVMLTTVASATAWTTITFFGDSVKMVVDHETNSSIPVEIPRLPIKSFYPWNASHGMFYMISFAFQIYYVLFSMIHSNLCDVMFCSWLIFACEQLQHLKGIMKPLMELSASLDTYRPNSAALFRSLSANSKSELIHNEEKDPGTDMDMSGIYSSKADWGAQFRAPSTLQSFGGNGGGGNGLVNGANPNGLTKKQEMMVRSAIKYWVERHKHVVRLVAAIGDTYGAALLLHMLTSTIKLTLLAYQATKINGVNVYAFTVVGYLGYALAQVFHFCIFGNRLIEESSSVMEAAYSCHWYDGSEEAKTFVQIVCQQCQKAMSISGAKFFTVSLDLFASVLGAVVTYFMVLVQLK
In words: Ca2+-imaging of stable Flip-In T-Rex cell line Or47a/Or83b. The following applies: for inhibition at 4 µM: compound applied at 4 μM, read-out: Percent Inhibition OR47a OR83b. Here is the method:
as §1
Stable cell lines Or47a/Or83b and 5HT3 were generated from Flip-In T-Rex cells. Flip-In T-Rex-based cell lines were cultured in DMEM supplemented with these additional antibiotics: 6 μg/mL blasticidin and 100 μg/mL hygromycin.
Cells were trypsinized and split into 35 mm dishes 1 day before transfection. Confluent cells (60-70%) in 35 mm dishes were co-transfected with 1 μg of Or47a/Or83b plasmid in pcDNA5/FRT/TO/IRES plus the pOG44 plasmid or 1 μg of 5HT3 plasmid in pcDNA5/FRT/TO plus the pOG44 plasmid using lipofectamine 2000. Co-transfection of pOG44 and pcDNA5/FRT/TO/IRES or pcDNA5/FRT/TO allows expression of Flp recombinase and integration of the pcDNA5 plasmid into the genome via the FRT site. After one day of incubation, the transfected cells were transferred into 10 cm dishes with DMEM containing antibiotics: 20 μg/mL of hygromycin and 6 μg/mL of blasticidin. The concentration of Hygromycin was increased to 100 μg/mL when the population of cells became 30-40% confluent. The cells were cultured by changing medium every two days until cell clumps appeared. The clumps were picked and transferred into 96 well plates with DMEM containing 100 μg/mL of Hygromycin and 6 μg/mL of blasticidin. The cells were grown and transferred to 24 well plates, and ligand-evoked calcium increases were tested using the Hamamatsu FDSS6000 real time fluorescence plate reader.
as §4, §5

Assay [4] addresses T2, TRP channel (TRPM8) (Mus musculus, UniProt Q8R4D5).
T2 construct: Full-length cDNAs for mosquito (Anopheles gambiae) odorant receptor (OR1, OR2, OR7, OR8, OR28), and fly (Drosophila melanogaster) odorant receptor (Or47a, Or83b), mouse TRP channel (TRPM8); expressed in transfected cells
In words: Ca2+-imaging of stable HEK293T cell line TRPM8. The following applies: for inhibition at 4 µM: HEK-293T, compound applied at 4 μM, read-out: Percent Inhibition TRPM8. Here is the method: as §1, §2, §3, §4, §5

Chain of OR8/OR7 (Q7QCC7 whole entry): as the sequence (Q7QCC7 whole entry) above
Chain of OR8/OR7 (Q7PUT5 entry or part of it): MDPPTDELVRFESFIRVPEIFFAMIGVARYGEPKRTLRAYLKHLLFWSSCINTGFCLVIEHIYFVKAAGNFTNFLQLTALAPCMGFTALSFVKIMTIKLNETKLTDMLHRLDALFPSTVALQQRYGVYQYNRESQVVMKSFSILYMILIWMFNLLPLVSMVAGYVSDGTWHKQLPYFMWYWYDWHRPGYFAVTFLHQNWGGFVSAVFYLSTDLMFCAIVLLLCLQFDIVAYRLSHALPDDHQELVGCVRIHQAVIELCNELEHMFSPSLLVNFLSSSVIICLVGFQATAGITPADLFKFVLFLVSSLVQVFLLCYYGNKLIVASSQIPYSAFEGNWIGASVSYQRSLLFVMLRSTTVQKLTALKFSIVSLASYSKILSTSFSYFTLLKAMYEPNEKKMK
T2 sequence (Q8R4D5 whole entry): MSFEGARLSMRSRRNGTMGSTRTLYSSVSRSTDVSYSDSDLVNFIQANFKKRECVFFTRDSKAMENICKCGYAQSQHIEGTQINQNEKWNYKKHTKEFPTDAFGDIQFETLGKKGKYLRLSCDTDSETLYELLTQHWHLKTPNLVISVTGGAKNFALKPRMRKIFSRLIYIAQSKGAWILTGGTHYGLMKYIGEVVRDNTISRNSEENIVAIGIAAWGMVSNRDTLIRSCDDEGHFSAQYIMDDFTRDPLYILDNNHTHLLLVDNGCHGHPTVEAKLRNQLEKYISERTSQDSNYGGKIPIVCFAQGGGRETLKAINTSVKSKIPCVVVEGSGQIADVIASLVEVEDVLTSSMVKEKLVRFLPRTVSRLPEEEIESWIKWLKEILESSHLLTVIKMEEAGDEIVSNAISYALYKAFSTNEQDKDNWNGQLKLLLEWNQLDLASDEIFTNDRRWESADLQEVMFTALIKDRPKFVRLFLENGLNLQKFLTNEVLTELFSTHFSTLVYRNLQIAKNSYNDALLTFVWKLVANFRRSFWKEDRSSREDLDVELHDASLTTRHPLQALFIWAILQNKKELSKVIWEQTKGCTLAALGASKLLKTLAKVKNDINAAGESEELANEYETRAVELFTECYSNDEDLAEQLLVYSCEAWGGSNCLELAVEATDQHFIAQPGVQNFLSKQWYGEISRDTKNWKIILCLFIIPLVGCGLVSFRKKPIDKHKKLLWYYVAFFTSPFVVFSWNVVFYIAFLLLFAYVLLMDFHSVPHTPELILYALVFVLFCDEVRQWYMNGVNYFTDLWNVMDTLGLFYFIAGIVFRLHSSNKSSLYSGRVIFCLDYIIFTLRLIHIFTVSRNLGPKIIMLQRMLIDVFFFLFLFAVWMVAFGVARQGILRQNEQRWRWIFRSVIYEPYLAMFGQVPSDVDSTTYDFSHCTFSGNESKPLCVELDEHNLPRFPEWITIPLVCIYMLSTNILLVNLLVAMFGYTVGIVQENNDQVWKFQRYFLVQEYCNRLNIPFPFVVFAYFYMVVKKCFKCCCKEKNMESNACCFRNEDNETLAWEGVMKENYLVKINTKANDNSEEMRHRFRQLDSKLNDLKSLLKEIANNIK

For `O=C(c1cccc(F)c1)N(Cc1c(-c2ccccc2)noc1N1CCCC1)CC1CCCO1` (centres unmarked) [RU-0037434], the inhibition at 4 µM in assay [1] is 51 to 74%; in assay [2], above 75%; in assay [3] it was 51 to 74%; in assay [4] it was below 25%. The pIC50 in assay [1] (Table B, read-out: IC50 OR8) is below 6.00; in assay [2] (Table B, read-out: IC50 OR28), above 7.00; in assay [3] (Table B, read-out: IC50 OR47a) it was below 6.00.

`O=C(c1ccco1)N(Cc1nccn1Cc1c(F)cccc1Cl)C1CC1` [RU-0048046]: the inhibition at 4 µM in assay [1] is below 25%; in assay [2], above 75%; in assay [3], 26 to 50%; in assay [4], below 25%. Also, the pIC50 in assay [2] (Table B, read-out: IC50 OR28) is above 7.00.

As to `CCN(CC)c1onc(-c2ccc(F)cc2)c1CN(CCCOC)C(=O)c1ccc2c(c1)OCO2` [RU-0036983], the inhibition at 4 µM in assay [1] is 51 to 74%; in assay [2] it was above 75%; in assay [3] it was 51 to 74%; in assay [4], 26 to 50%. For the same compound, the pIC50 was below 6.00 in assay [1] (Table B, read-out: IC50 OR8); above 7.00 in assay [2] (Table B, read-out: IC50 OR28); below 6.00 in assay [3] (Table B, read-out: IC50 OR47a).

As for `COCCCN(Cc1c(-c2ccccc2)noc1N(C)C(C)C)C(=O)c1ccccc1OC` [RU-0037003], the inhibition at 4 µM in assay [1] was 26 to 50%; in assay [2], above 75%; in assay [3], below 25%; in assay [4] it was below 25%. Besides, the negative-log IC50 (pIC50) in assay [2] (Table B, read-out: IC50 OR28) is above 7.00.

For the compound `Fc1cccc(Cl)c1Cn1ccnc1CN(CC1CCCC1)C1CC1` [RU-I4], the pIC50 was below 3.66 in assay [1] (ligand 1-octen-3-ol 30 μM, read-out: IC50 OR8 OR7); 4.70 to 5.70 in assay [2] (ligand acetophenone 300 μM, read-out: IC50 OR28 OR7); below 4.70 in assay [3] (ligand pentyl acetate 30 μM, read-out: IC50 OR47a OR83b); below 4.70 in assay [4] (ligand menthol 300 μM, read-out: IC50 TRPM8).

As to `Cc1ccccc1C(=O)N[C@@H]1CCCCC1NC(=O)C1CCCN(S(=O)(=O)c2cc(Cl)ccc2Cl)C1` (some centres unmarked) [RU-0045691], the inhibition at 4 µM is below 25% in assay [1], above 75% in assay [2], 26 to 50% in assay [3] and below 25% in assay [4]. Besides, in assay [2] (Table B, read-out: IC50 OR28), the pIC50 was above 7.00.

In the case of `C=CCNC(=O)C(NC(=O)c1cccc(C)c1)C1CCN(C(=O)c2cccc(Br)c2)CC1` (centres unmarked) [RU-0039123], the inhibition at 4 µM in assay [1] was 26 to 50%; in assay [2], above 75%; in assay [3], 51 to 74%; in assay [4], below 25%. Besides, the pIC50 was above 7.00 in assay [2] (Table B, read-out: IC50 OR28) and below 6.00 in assay [3] (Table B, read-out: IC50 OR47a).

For the compound `Cc1ccccc1C(=O)N[C@@H]1CCCCC1NC(=O)C1CCN(C(=O)c2cc(C(F)(F)F)cc(C(F)(F)F)c2)CC1` (some centres unmarked) [RU-0045778], the inhibition at 4 µM in assay [1] is below 25%; in assay [2], 51 to 74%; in assay [3] it was 26 to 50%; in assay [4], below 25%. Moreover, the pIC50 in assay [2] (Table B, read-out: IC50 OR28) is above 7.00.
